Laboratory results published in patent US12643879B2, “Functionalized heterocyclic compounds as modulators of stimulator of interferon genes (STING)” (RYVU THERAPEUTICS S.A., priority 2019, dated 2026).
Structures can show the parent of a compound that is named as a salt. Where two headings read alike, the source gives them in different places.

Columns and labels:
[1] = system: interferon regulatory factor (IRF) pathway in THP-1 dual cells; assay: THP-1 Dual reporter assay, IRF pathway (luciferase); type: cell-based; conditions: Homo sapiens, THP1-Dual, read-out: THP1 Dual EC50 (μM) IRF
Experimental: (§1) Compounds of the present invention were tested for their activity using THP-1 dual cells (Invivogen, cat no. thpd-nfis) allowing for simultaneous study of NF-κB pathway and the interferon regulatory factor (IRF) pathway. THP-1 dual cells contain luciferase reporter gene under the control of an ISG54 (interferon-stimulated gene) minimal promoter in conjunction with five interferon-stimulated response elements and a secreted embryonic alkaline phosphatase reporter gene under the control an IFN (interferon)-β minimal promoter fused to five copies of the NF-κB consensus transcriptional response element with three copies of the c-Rel binding site. Following 18 h of stimulation with STING agonist, medium was collected and transferred onto fresh cell culture plate. To verify activity of the IRF pathway, luminescence activity was measured with standard laboratory plate reader immediately after addition 10 μl of the medium to 40 or 50 μl of luminescence reagent (Invivogen, cat. No. rep-qlc2). To verify activity of NF-κB pathway, 10 or 20 μl of the medium was mixed with 80 μl of a detection medium (Invivogen, cat. No. rep-qb2) and incubated for 1 or 2 hours at 37° C. in a humidified atmosphere containing 5% CO2. Next, absorbance at 630 or 655 nm was recorded using standard laboratory plate reader.

[2] = system: NF-κB pathway in THP-1 dual cells; assay: THP-1 Dual reporter assay, NF-κB pathway (SEAP); type: cell-based; conditions: Homo sapiens, THP1-Dual, read-out: THP1 Dual EC50 (μM) NFkB
Experimental: as §1

[3] = 18 h stimulation, absorbance at 630 or 655 nm

SMILES | EC50 ([1]; 18 h stimulation, luminescence) | EC50 [2, 3] | EC50 ([1]; 18 h) | EC50 ([2]; 18 h)
Cc1ccc(N2CCC[C@H](N(Cc3ccnc(C)c3)Cc3cn(C4CC4)c4cc(N5CC[C@@H](N(C)C(=O)CCOCCOCCOCCNC(=O)OC(C)(C)C)C5)c(F)cc4c3=O)C2)cn1 [Example 55C, tert-Butyl N-(2-{2-[2-(2-{[(3R)-1-[1-cyclopropyl-6-fluoro-3-({[(3S)-1-(6-methylpyridin-3-yl)piperidin-3-yl][(2-methylpyridin-4-yl)methyl]amino}methyl)-4-oxo-1,4-dihydroquinolin-7-yl]pyrrolidin-3-yl](methyl)carbamoyl}ethoxy)ethoxy]ethoxy}ethyl)carbamate] | < 1 µM | < 1 µM |  | 
Cc1ccc(N2CCC[C@H](N(Cc3ccnc(C)c3)Cc3cn(C4CC4)c4cc(N5CC[C@@H](N(C)C(=O)CCOCCOCCOCCN)C5)c(F)cc4c3=O)C2)cn1 [Example 55D, 3-{2-[2-(2-aminoethoxy)ethoxy]ethoxy}-N-[(3R)-1-[1-cyclopropyl-6-fluoro-3-({[(3S)-1-(6-methylpyridin-3-yl)piperidin-3-yl][(2-methylpyridin-4-yl)methyl]amino}methyl)-4-oxo-1,4-dihydroquinolin-7-yl]pyrrolidin-3-yl]-N-methylpropanamide formate] | 1 to 10 µM | 1 to 10 µM |  | 
C#CCOCCOCCOCCOCCOCCC(=O)Nc1ccc(COC(=O)N(C)[C@H]2CCN(c3cc4c(cc3F)c(=O)c(CN(Cc3ccnc(C)c3)[C@H]3CCCN(c5ccc(C)nc5)C3)cn4C3CC3)C2)cc1 [Example 58A, [4-(4,7,10,13,16-pentaoxanonadec-18-ynamido)phenyl]methyl N-[(3S)-1-[1-cyclopropyl-6-fluoro-3-({[(3S)-1-(6-methylpyridin-3-yl)piperidin-3-yl][(2-methylpyridin-4-yl)methyl]amino}methyl)-4-oxo-1,4-dihydroquinolin-7-yl]pyrrolidin-3-yl]-N-methylcarbamate] | < 1 µM | < 1 µM |  | 
Cc1cc(CN(Cc2cn(C(C)C)c3cc(N4CC[C@@H](O)C4)ccc3c2=O)[C@H]2CCCN(c3cncnc3)C2)ccn1 [Example 59, 7-[(3R)-3-Hydroxypyrrolidin-1-yl]-3-({[(2-methylpyridin-4-yl)methyl][(3S)-1-(pyrimidin-5-yl)piperidin-3-yl]amino}methyl)-1-(propan-2-yl)-1,4-dihydroquinolin-4-one] | > 10 µM | > 10 µM |  | 
Cc1ccc(N2CCC[C@H](N(Cc3ccnc(C)c3)Cc3cn(C4CC4)c4cc(-c5cnn(CCO)c5)c(F)cc4c3=O)C2)cn1 [Example 62, 1-Cyclopropyl-6-fluoro-7-[1-(2-hydroxyethyl)-1H-pyrazol 4-yl]-3-({[(3S)-1-(6-methylpyridin-3-yl)piperidin-3-yl][(2-methylpyridin-4-yl)methyl]amino}methyl)-1,4-dihydroquinolin-4-one] | < 1 µM | < 1 µM |  | 
Cc1ccc(N2CCC[C@H](N(Cc3ccnc(C)c3)Cc3cn(C4CC4)c4cc(-n5cnc(C(N)=O)c5)c(F)cc4c3=O)C2)cn1 [Example 64, 1-[1-Cyclopropyl-6-fluoro-3-({[(3S)-1-(6-methylpyridin-3-yl)piperidin-3-yl][(2-methylpyridin-4-yl)methyl]amino}methyl)-4-oxo-1,4-dihydroquinolin-7-yl]-1H-imidazole-4-carboxamide] | < 1 µM | < 1 µM |  | 
COc1cc(CN(Cc2cn(C3CC3)c3cc(N4CC[C@@H](O)C4)c(F)cc3c2=O)[C@H]2CCCN(c3cccnc3)C2)ccn1 [Example 65, 1-cyclopropyl-6-fluoro-7-[(3R)-3-hydroxypyrrolidin-1-yl]-3-({[(2-methoxypyridin-4-yl)methyl][(3S)-1-(pyridin-3-yl)piperidin-3-yl]amino}methyl)-1,4-dihydroquinolin-4-one hydrochloride] |  |  | < 1 µM | < 1 µM
Cc1ccc(N2CCC[C@H](N(Cc3ccnc(C)c3)Cc3cn(C4CC4)c4cc(N5CCC6C(CCN6C(=O)OCc6ccc(NC(=O)[C@H](CCCNC(N)=O)NC(=O)[C@@H](NC(=O)CCOCCOCCOCCN=[N+]=[N-])C(C)C)cc6)C5)c(F)cc4c3=O)C2)cn1 (stereo partly drawn) [Example 68A, {4-[(2S)-2-[(2S)-2-(3-{2-[2-(2-azidoethoxy)ethoxy]ethoxy}propanamido)-3-methyl-butanamido]-5-(carbamoylamino)pentanamido]phenyl}methyl 5-[1-cyclopropyl-6-fluoro-3-({[(3S)-1-(6-methylpyridin-3-yl)piperidin-3-yl][(2-methylpyridin-4-yl)methyl]amino}methyl)-4-oxo-1,4-dihydroquinolin-7-yl]-octahydro-1H-pyrrolo[3,2-c]pyridine-1-carboxylate] | 1 to 10 µM | > 10 µM |  | 
Cc1cc(CN(Cc2cn(C(C)C)c3cc(N4CC[C@@H](O)C4)ccc3c2=O)[C@H]2CCCN(c3cn[nH]c3)C2)ccn1 [Example 69, 7-[(3R)-3-hydroxypyrrolidin-1-yl]-3-({[(2-methylpyridin-4-yl)methyl][(3S)-1-(1H-pyrazol-4-yl)piperidin-3-yl]amino}methyl)-1-(propan-2-yl)-1,4-dihydroquinolin-4-one] | 1 to 10 µM | 1 to 10 µM |  | 
Cc1ccc(N2CCC[C@H](N(Cc3ccnc(C)c3)Cc3cn(C4CC4)c4cc(N5CCN(CCO)CC5)c(F)cc4c3=O)C2)cn1 [Example 70, 1-cyclopropyl-6-fluoro-7-[4-(2-hydroxyethyl)piperazin-1-yl]-3-({[(3S)-1-(6-methylpyridin-3-yl)piperidin-3-yl][(2-methylpyridin-4-yl)methyl]amino}methyl)-1,4-dihydroquinolin-4-one] | < 1 µM | < 1 µM |  | 
Cc1ccc(N2CCC[C@H](N(Cc3ccnc(C)c3)Cc3cn(C4CC4)c4cc(N5CCOC(CO)C5)c(F)cc4c3=O)C2)cn1 (stereo partly drawn) [Example 71, 1-cyclopropyl-6-fluoro-7-[2-(hydroxymethyl)morpholin-4-yl]-3-({[(3S)-1-(6-methylpyridin-3-yl)piperidin-3-yl][(2-methylpyridin-4-yl)methyl]amino}methyl)-1,4-dihydroquinolin-4-one] | < 1 µM | < 1 µM |  | 
Cc1cc(CN(Cc2cn(C3CC3)c3cc(Cl)c(F)cc3c2=O)[C@H]2CCCN(c3cnccc3CO)C2)ccn1 [Example 74, 7-chloro-1-cyclopropyl-6-fluoro-3-({[(3S)-1-[4-(hydroxymethyl)pyridin-3-yl]piperidin-3-yl][(2-methylpyridin-4-yl)methyl]amino}methyl)-1,4-dihydroquinolin-4-one] | 1 to 10 µM | 1 to 10 µM |  | 
Cc1ccc(N2CCC[C@H](N(Cc3ccnc(C)c3)Cc3cn(C4CC4)c4cc(C5C[C@@H](O)CN5)ccc4c3=O)C2)cn1 (stereo partly drawn) [Example 76, 1-cyclopropyl-7-[(4R)-4-hydroxypyrrolidin-2-yl]-3-({[(3S)-1-(6-methylpyridin-3-yl)piperidin-3-yl][(2-methylpyridin-4-yl)methyl]amino}methyl)-1,4-dihydroquinolin-4-one] | 1 to 10 µM | 1 to 10 µM |  | 
Cc1ccc(N2CCC[C@H](N(Cc3ccnc(C)c3)Cc3cn(CC(N)=O)c4ccccc4c3=O)C2)cn1 [Example 77, 2-[3-({[(3S)-1-(6-methylpyridin-3-yl)piperidin-3-yl][(2-methylpyridin-4-yl)methyl]amino}methyl)-4-oxo-1,4-dihydroquinolin-1-yl]acetamide] | 1 to 10 µM | 1 to 10 µM |  | 
Cc1ccc(N2CCC[C@H](N(Cc3ccnc(C)c3)Cc3cn(C4CC4)c4cc(N5CCC(CO)C5)c(F)cc4c3=O)C2)cn1 (stereo partly drawn) [Example 79, 1-cyclopropyl-6-fluoro-7-[3-(hydroxymethyl)pyrrolidin-1-yl]-3-({[(3S)-1-(6-methylpyridin-3-yl)piperidin-3-yl][(2-methylpyridin-4-yl)methyl]amino}methyl)-1,4-dihydroquinolin-4-one hydrochloride] | < 1 µM | < 1 µM |  | 
Cc1cnc(N2CCC[C@H](N(Cc3ccnc(C)c3)Cc3cn(C4CC4)c4cc(N5CCC[C@H](O)C5)c(F)cc4c3=O)C2)cn1 [Example 81, 1-cyclopropyl-6-fluoro-7-[(3S)-3-hydroxypiperidin-1-yl]-3-({[(3S)-1-(5-methylpyrazin-2-yl)piperidin-3-yl][(2-methylpyridin-4-yl)methyl]amino}methyl)-1,4-dihydroquinolin-4-one] | < 1 µM | < 1 µM |  | 
Cc1cc(CN(Cc2cn(C3CC3)c3cc(OCCO)c(F)cc3c2=O)[C@H]2CCCN(c3cnc(C)c(F)c3)C2)ccn1 [Example 83, 1-cyclopropyl-6-fluoro-3-({[(3S)-1-(5-fluoro-6-methylpyridin-3-yl)piperidin-3-yl][(2-methylpyridin-4-yl)methyl]amino}methyl)-7-(2-hydroxyethoxy)-1,4-dihydroquinolin-4-one] | < 1 µM | < 1 µM |  | 
Cc1cc(CN(Cc2cn(C3CC3)c3cc(OCCO)c(F)cc3c2=O)[C@H]2CCCN(c3cccnc3)C2)ccn1 [Example 84, 1-cyclopropyl-6-fluoro-7-(2-hydroxyethoxy)-3-({[(2-methylpyridin-4-yl)methyl][(3S)-1-(pyridin-3-yl)piperidin-3-yl]amino}methyl)-1,4-dihydroquinolin-4-one hydrochloride] |  |  | < 1 µM | < 1 µM
